The series is described as follows: Solubility of Compound 1 malate after 24 hours in Dissolution Test Solution 1 of the Japanese Pharmacopoeia with 5% surfactant. The following applies: thermodynamic from solid. The series is classed as physicochemical. How it is done: The surfactants shown in Table 3 and Dissolution Test Solution 1 of the Japanese Pharmacopoeia were used, and the concentration of each surfactant was adjusted to 5%. Compound 1 malate was sufficiently added thereto, the mixture was stirred, and the solubility after 24 hours was measured.

As a reminder, the solubility is how much of the substance goes into solution per volume. Read a low solubility as little dissolved substance.

SMILES strings stand for the structures. Converted amounts (≈) assume the structure as drawn.

As to `Cc1nc2cc(-n3ncc(C(=O)c4cc5ccccc5[nH]4)c3N)ccc2[nH]1` [Compound 1, [5-amino-1-(2-methyl-3H-benzimidazol-5-yl)-1H-pyrazol-4-yl]-(1H-indol-2-yl)-methanone], the solubility at 24 h runs as follows: (pH 1.2, aqueous with cosolvent or surfactant or cyclodextrin, 5% Polyoxyethylene (10) octylphenyl ether) 145 µg/mL (≈ 406 µM); (pH 1.2, aqueous with cosolvent or surfactant or cyclodextrin, 5% Polysorbate 80) 138 µg/mL (≈ 388 µM); (pH 1.2, aqueous with cosolvent or surfactant or cyclodextrin, 5% Sodium lauryl sulfate) 136 µg/mL (≈ 383 µM); (pH 1.2, simulated gastric fluid, no surfactant) 18.5 µg/mL (≈ 51.9 µM).

(Values after patent US9814776B2, “Pharmaceutical preparation comprising aminopyrazole derivative” (Chugai Seiyaku Kabushiki Kaisha, priority 2013, dated 2017).)
